Peptide text beside a SMILES is read from it. * marks the point of attachment. Cbz = O=C(OCc1ccccc1)*; CH2F = FC*
Columns and labels:
caspase-3 = conditions: cited from earlier work
Text: The factors that determine whether a peptide induces apoptosis or not are not fully known. […] Although the mechanism of how CKS1 treatment affects the mitochondria remains unanswered, the malfunctioning of mitochondria caused by CKS1 may be the ...

4T1 cells [1] = assay: LDH release assay (CyQUANT); format: cell-based, murine; conditions: N = 3; for effect of inhibitor pretreatment on CKS1-induced release of LDH: 30 min pre-treatment (50 µM Z-VAD, 50 µM Nec-1s, 1 µM Fer-1), then 100 µM CKS1 6 hours; for release of LDH (oncolytic activity): 100 µM of the indicated peptides for 6 h, normalized to lysis buffer
Experimental: Ten thousand cells were seeded in a 96-well plate and incubated overnight. The cells were washed once, and the medium was replaced with serum-free media. Cells were treated with CKS1 for the indicated time and concentration. CyQUANT LDH cytotoxicity assay (Thermo Fisher Scientific) was used following the manufacturer’s instructions to measure the release of LDH. LDH release was normalized to the amount of LDH released from cells treated with lysis buffer.

4T1 cells [2] = assay: Calcein-AM live cell imaging of cytosol release; format: cell-based, murine; conditions: 4T1 cells, 50 µM Z-VAD 30 minutes, then 100 µM CKS1
Experimental: Fluorescence labeling of cells was performed by seeding 5.0 × 10^4 4T1 cells in a 35 mm dish on a collagen-coated No. 1.5 coverslip with a 14 mm glass diameter (MatTek, Ashland, MA). After overnight incubation, the cells were washed once with serum-free media and replaced with fresh serum-free media. For cell cytosol labeling, Calcein-AM (Thermo Fisher Scientific, C1430) was added at a final concentration of 5 µg/mL and incubated for 10 min. For mitochondrial membrane labeling, JC-1 (Thermo Fisher Scientific, T3168) was added at a final concentration of 10 µg/mL and incubated for 10 min. To monitor the activity of caspases, CellEvent Caspase-3/7 Red detection reagents (Thermo Fisher Scientific, C10423) were used following the manufacturer’s instructions. For nuclear staining, Hoechst 33342 (Cell Signaling Technology, #4082) was added at a final concentration of 5 µg/mL and incubated for 10 min.
Cells were imaged on either a Zeiss LSM 700 or a 3i spinning disk confocal microscope. Samples were imaged with optimized microscope settings. Z-stack, time-lapse, or multi-channel acquisition settings were adjusted based on the experimental requirements. Images were then acquired with the appropriate excitation and emission wavelengths for each fluorophore.
Image processing was performed using Fiji software. For each image/video, the brightness and the contrast were adjusted. The time stamp and the scale bar were added. For quantification, CellProfiler was used. After cell segmentation based on the nucleus, the intensity of the signal of interest was quantified for each cell. Based on the intensity, each cells were labeled as positive or negative and the fraction of positive cells was calculated.

Solubility in water = conditions: data not shown

Row | Compound | effect of inhibitor pretreatment on CKS1-induced release of LDH (4T1 cells [1]) | release of LDH (oncolytic activity) (4T1 cells [1]) | further results
1 | LTX-315 | – | – | caspase-3 activity (caspase-3): failed to stimulate caspase-3 activity
2 | COC(=O)C[C@H](NC(=O)[C@H](C)NC(=O)[C@@H](NC(=O)OCc1ccccc1)C(C)C)C(=O)CF [Z-VAD, reference compound] (Cbz-Val-Ala-Asp(OMe)-CH2F) | did not inhibit the release of LDH | – | effect of inhibitor pretreatment on CKS1-induced release of calcein (4T1 cells [2]): did not inhibit nor slow down the release of calcein
3 | NGRKACLNPASPIVEEIIEEMLNS [NC1, mutant of CKS1, three lysines replaced with glutamic acids, anionic] | – | did not show oncolytic activity | –
4 | IVKKIIEKMLNS [helical region of CKS1] | – | induced LDH release | solubility in water (Solubility in water): poorly soluble in water
5 | CCOC(=O)c1ccc(NC2CCCCC2)c(N)c1 [Fer-1, ferrostatin-1, reference compound] | did not inhibit the release of LDH | – | –
6 | NGRKACLNPASP [loop region of CKS1, peptide that contains the N-terminal loop region of CKS1] | – | did not | –
7 | CN1C(=O)NC(Cc2c[nH]c3c(Cl)cccc23)C1=O (stereo not shown) [Nec-1s, necrostatin-1 stable, reference compound] | did not inhibit the release of LDH | – | –
8 | NGRKACLNPASPIVKKIIPEKMLNS [NC2, mutant of CKS1, single proline inserted in the middle of the α-helix] | – | did not show oncolytic activity | –
